From US7858635B2 (priority 2005, dated 2010)
Where two headings read alike, the source gives them in different places.

Key:
M1 muscarinic receptor = biological target: T1, M1 muscarinic receptor (Homo sapiens, UniProt P11229); experiment: Functional mobilization of intracellular calcium (FLIPR, Fluo-3), M1-CHO cells; format: cell-based; details: for Emax: 100% efficacy is the maximum response obtained with the Carbachol control, read-out: M1 Efficacy
T1 construct: expressed in transfected cells; host or cells: CHO cells (M1-CHO, under zeocin and G418 selection)
T1 sequence (P11229 1-460): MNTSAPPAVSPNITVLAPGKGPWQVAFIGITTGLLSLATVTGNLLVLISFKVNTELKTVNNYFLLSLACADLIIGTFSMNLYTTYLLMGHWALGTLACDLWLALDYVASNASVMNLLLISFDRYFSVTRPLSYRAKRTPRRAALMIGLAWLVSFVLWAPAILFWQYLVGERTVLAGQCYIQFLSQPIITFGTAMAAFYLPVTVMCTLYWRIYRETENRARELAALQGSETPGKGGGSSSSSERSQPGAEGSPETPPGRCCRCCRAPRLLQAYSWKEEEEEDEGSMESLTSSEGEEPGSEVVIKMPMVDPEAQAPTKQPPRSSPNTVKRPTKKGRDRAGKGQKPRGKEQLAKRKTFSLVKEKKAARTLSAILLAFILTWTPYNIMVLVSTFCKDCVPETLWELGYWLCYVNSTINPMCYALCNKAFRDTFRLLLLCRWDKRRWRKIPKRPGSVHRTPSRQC
Summary of the method: (§1)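 Fluo-3 read-out, ex 488/em 540 nm, 60 sec on FLIPR 3. For agonist mode, compound added directly; for inhibition, 15 min compound pre-incubation before carbachol at EC80 (added as a 3× solution), or co-application. Buffer pH 7.4 with 1 mM probenecid; DMSO 0.5%.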

M4 muscarinic receptor = biological target: T2, M4 muscarinic receptor (Homo sapiens, UniProt P08173); experiment: Functional mobilization of intracellular calcium (FLIPR, Fluo-3), M4-CHO cells; format: cell-based; details: for Emax: 100% efficacy is the maximum response obtained with the Carbachol control, read-out: M4 Efficacy
T2 construct: expressed in transfected cells; host or cells: CHO cells (M4-CHO, under puromycin, zeocin and blasticidin selection)
T2 sequence (P08173 1-479): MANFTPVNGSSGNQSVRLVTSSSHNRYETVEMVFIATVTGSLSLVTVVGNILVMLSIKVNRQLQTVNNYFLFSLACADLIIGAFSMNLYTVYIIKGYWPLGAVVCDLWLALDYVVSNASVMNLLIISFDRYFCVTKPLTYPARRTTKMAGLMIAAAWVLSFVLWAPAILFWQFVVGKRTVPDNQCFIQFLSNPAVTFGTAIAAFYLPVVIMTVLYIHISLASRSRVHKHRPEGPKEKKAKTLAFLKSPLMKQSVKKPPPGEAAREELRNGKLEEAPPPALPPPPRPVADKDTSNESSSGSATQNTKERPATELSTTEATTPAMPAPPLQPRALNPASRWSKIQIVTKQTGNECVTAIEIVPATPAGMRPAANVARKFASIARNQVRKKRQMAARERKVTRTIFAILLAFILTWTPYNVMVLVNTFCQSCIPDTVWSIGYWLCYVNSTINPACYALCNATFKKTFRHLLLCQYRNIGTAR
Summary of the method: as §1

[1] = compound nos. 1-454, M1-CHO cells, calcium mobilization
[2] = compound nos. 1-454, M4-CHO cells, calcium mobilization

SMILES | M1 Activity (M1 muscarinic receptor; compound nos. 1-454) | Emax (M1 muscarinic receptor; compound nos. 1-454) [%] | M4 Activity (M4 muscarinic receptor; compound nos. 1-454) | Emax (M4 muscarinic receptor; compound nos. 1-454) [%] | M1 Activity (M1 muscarinic receptor; [1]) | M4 Activity (M4 muscarinic receptor; [2]) | Emax (M1 muscarinic receptor; compound nos. 455-509) [%] | M1 Activity (M1 muscarinic receptor; compounds 455-509) | Emax (M4 muscarinic receptor; compound nos. 455-509) [%] | M4 Activity (M4 muscarinic receptor; compounds 455-509)
COC(=O)N1C2CCC1CC(N1CCC3(CC1)CN(S(C)(=O)=O)c1ccc(F)cc13)C2 (stereo not drawn) [compound 383] | +++ (activity was measured to be less than or equal to 0.7 μM) | 65 to 85 | ++ (activity was measured to be between 0.1 μM and 4.0 μM) | < 55 |  |  |  |  |  | 
CCCC1CCC(N2CCC3(CC2)CN(C(C)=O)c2ccc(F)cc23)CC1 (stereo not drawn) [compound 131] |  | 65 to 85 |  | > 70 | +++ (activity was measured to be less than or equal to 0.7 μM) | ++ (activity was measured to be between 0.1 μM and 4.0 μM) |  |  |  | 
CC(=O)N1CC2(CCN(C3CCN(c4nccs4)CC3)CC2)c2cc(F)ccc21 [compound 432] | +++ (activity was measured to be less than or equal to 0.7 μM) | 65 to 85 | +++ (activity was measured to be less than or equal to 0.1 μM) | 55 to 70 |  |  |  |  |  | 
COCCOC(=O)N1C2CCC1CC(N1CCC3(CC1)CN(C(=O)O[C@@H]1CCOC1)c1ccc(F)cc13)C2 (stereo partly drawn) [compound 216] |  | > 85 |  | < 55 | +++ (activity was measured to be less than or equal to 0.7 μM) | + (activity was measured to be greater than or equal to 4.0 μM) |  |  |  | 
c1ccc2c(c1)NCC21CCN(C2CCCCC2)CC1 [compound 375] | +++ (activity was measured to be less than or equal to 0.7 μM) | > 85 | +++ (activity was measured to be less than or equal to 0.1 μM) | 55 to 70 |  |  |  |  |  | 
Cc1cnc(N2CCC(N3CCC4(CC3)CN(C(=O)N(C)C)c3ccccc34)CC2)cn1 [compound 468] |  |  |  |  |  |  | > 100 | + (activity was measured to be greater than or equal to 5.0 μM) | 25 to 100 | ++ (activity was measured to be between 2.0 μM and 5.0 μM)
COCCOC(=O)N1C2CCC1CC(N1CCC3(CC1)CN(C(=O)OC1CCC1)c1ccc(F)cc13)C2 (stereo not drawn) [compound 106] |  | 65 to 85 |  | < 55 | +++ (activity was measured to be less than or equal to 0.7 μM) | ++ (activity was measured to be between 0.1 μM and 4.0 μM) |  |  |  | 
CCOC(=O)N1CCC(N2CCC3(CC2)CN(C(C)=O)c2ccc(F)cc23)CC1 [compound 413] | +++ (activity was measured to be less than or equal to 0.7 μM) | < 65 | ++ (activity was measured to be between 0.1 μM and 4.0 μM) | < 55 |  |  |  |  |  | 
CCc1nsc(N2C3CCC2CC(N2CCC4(CCN(C(=O)N(C)C)c5ccccc54)CC2)C3)n1 (stereo not drawn) [compound 473] |  |  |  |  |  |  | > 100 | +++ (activity was measured to be less than or equal to 2.0 μM) | 25 to 100 | ++ (activity was measured to be between 2.0 μM and 5.0 μM)
CCOC(=O)N1CCC(N2CCC3(CC2)CN(C(C)=O)c2ccc(-c4ccc(C#N)cc4)cc23)CC1 [compound 253] |  | 65 to 85 |  | 55 to 70 | ++ (activity was measured to be between 0.7 μM and 3.0 μM) | + (activity was measured to be greater than or equal to 4.0 μM) |  |  |  | 
COc1ccc(N2CCC(N3CCC4(CC3)CN(C(=O)N(C)C)c3ccc(F)cc34)CC2)nn1 [compound 488] |  |  |  |  |  |  | > 100 | + (activity was measured to be greater than or equal to 5.0 μM) | 25 to 100 | ++ (activity was measured to be between 2.0 μM and 5.0 μM)
CCOC(=O)N1CCC(N2CCC3(CC2)CN(C(=O)c2ccccc2F)c2ccc(F)cc23)CC1 [compound 267] |  | < 65 |  | < 55 | + (activity was measured to be greater than or equal to 3.0 μM) | + (activity was measured to be greater than or equal to 4.0 μM) |  |  |  | 
